The term IC50 denotes the midpoint of a concentration-inhibition curve.

The source of these data is patent EP1388586A2, “Identification of broadly reactive DR restricted epitopes” (priority 1998, dated 1999).

Ends that are not written are not given here. Peptide text beside a SMILES is read from it.

The target in one assay is T1, DRB1*0301 (DR3w17) (Homo sapiens, UniProt P01903+P01911, A100K/A102G/A103R/A169T/F55Y/I96L/K41T/L162R/M171V/P40S/Q125H/Q178H/Q39Y/R42S/S66N/T106N/T262R/W38E/Y61H).
T1 construct: used as sources of human HLA class II molecules; endogenous in cells; host or cells: MAT (EBV-transformed homozygous B cell line)
T1 sequence (P01903 26-254, other chains not shown): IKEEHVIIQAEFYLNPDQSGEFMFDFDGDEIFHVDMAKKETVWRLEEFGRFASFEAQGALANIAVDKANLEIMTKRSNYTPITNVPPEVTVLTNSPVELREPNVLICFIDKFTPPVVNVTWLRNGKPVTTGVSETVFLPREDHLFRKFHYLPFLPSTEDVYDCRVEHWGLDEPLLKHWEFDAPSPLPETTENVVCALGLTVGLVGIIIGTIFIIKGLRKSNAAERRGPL
The assay is described as follows: Class II peptide-binding assay, DR3 (pH 4.5).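 Also: unlabeled peptide competing with a radiolabeled probe peptide for binding to affinity-purified HLA-DR3, IC50 regarded as an approximation of Kd.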 The following applies: Table VIII; values in parentheses read as lower bounds; read-out: In IC50 Format DR3.
Procedure: Class II peptide-binding assays. […] These assays were chosen as to be representative of the most common DR alleles.
In appropriate stoichiometric conditions, the IC50 of an unlabeled test peptide to the purified DR is a reasonable approximation of the affinity of interaction (Kd). Peptides were tested in two to four completely independent experiments. […] Final detergent concentration in the incubation mixture was 0.05% Nonidet P-40. Assays were performed at pH 7.0 with the exception of DR3, which was performed at pH 4.5, and DRw53, which was performed at pH 5.0.
All subsequent inhibition and direct binding assays were the performed using these class II concentrations.
`CSCC[C@H](NC(=O)[C@H](CCCNC(=N)N)NC(=O)[C@H](CO)NC(=O)[C@H](Cc1ccccc1)NC(=O)[C@H](CCC(=O)O)NC(=O)[C@H](CO)NC(=O)[C@@H](NC(=O)[C@H](CC(C)C)NC(=O)[C@H](CCC(=O)O)NC(=O)[C@H](CCCNC(=N)N)NC(=O)[C@@H](N)Cc1ccccc1)C(C)C)C(=O)N[C@@H](C)C(=O)N[C@@H](CCCNC(=N)N)C(=O)N[C@@H](CC(=O)O)C(=O)N1CCC[C@H]1C(=O)O` [Peptide 39.0370]: the IC50 was determined as 4.23 µM.
On to SLSFLQDIQEVQGYV [Peptide 39.0339], for which the IC50 stood at 5.77 µM.

Still in this assay, the particulars now being: read-out: In IC50 Format DR3 nM; Table VIII; values in parentheses read as lower bounds.
As to `CC(C)[C@H](N)C(=O)N[C@H](C(=O)N[C@@H](CS)C(=O)N[C@@H](Cc1ccccc1)C(=O)NCC(=O)N1CCC[C@H]1C(=O)N[C@@H](CCC(=O)O)C(=O)N[C@@H](C)C(=O)N[C@@H](CC(=O)O)C(=O)N[C@@H](CCC(N)=O)C(=O)N[C@@H](CS)C(=O)N[C@H](C(=O)N[C@@H](C)C(=O)N[C@@H](CS)C(=O)N[C@@H](C)C(=O)O)C(C)C)[C@@H](C)O` [Peptide 39.0356], the IC50 was greater than 111 µM.
In the case of FVVIQNEDLGPASPL [Peptide 39.0372], the IC50 is greater than 120 µM.
Take DTILWKDIFHKNNQL [Peptide 39.0342]: the IC50 was greater than 111 µM.
For the compound SDVFDGDLGMGAAKG [Peptide 39.0378], the IC50 was greater than 120 µM.
As for KNGVVKDVFAFGGAV [Peptide 39.0381], the IC50 was greater than 120 µM.
In the case of `CC(C)C[C@H](NC(=O)[C@H](CS)NC(=O)[C@H](Cc1c[nH]cn1)NC(=O)[C@H](CCCNC(=N)N)NC(=O)[C@H](C)NC(=O)[C@H](CC(N)=O)NC(=O)[C@@H](NC(=O)[C@H](Cc1ccc(O)cc1)NC(=O)[C@H](CCC(=O)O)NC(=O)[C@H](CCCNC(=N)N)NC(=O)[C@@H]1CCCN1C(=O)[C@H](CC(C)C)NC(=O)CNC(=O)[C@H](CCC(N)=O)NC(=O)[C@@H](N)CC(C)C)C(C)C)C(=O)O` [Peptide 39.0355], the IC50 was greater than 111 µM.
On to `CC(C)C[C@H](NC(=O)[C@@H]1CCCN1C(=O)[C@H](C)NC(=O)[C@@H](NC(=O)[C@H](CC(N)=O)NC(=O)[C@H](CO)NC(=O)[C@H](C)NC(=O)[C@@H]1CCCN1C(=O)[C@H](CC(=O)O)NC(=O)CNC(=O)[C@H](CC(=O)O)NC(=O)[C@H](Cc1ccccc1)NC(=O)[C@H](CO)NC(=O)[C@H](CCC(=O)O)NC(=O)[C@@H]1CCCN1)[C@@H](C)O)C(=O)O` [Peptide 39.0350], for which the IC50 is greater than 111 µM.
For `CC[C@H](C)[C@H](NC(=O)CNC(=O)[C@H](Cc1ccccc1)NC(=O)[C@@H](NC(=O)[C@H](CC(C)C)NC(=O)[C@@H](N)CCC(N)=O)C(C)C)C(=O)N[C@@H](CCC(=O)O)C(=O)N[C@H](C(=O)N[C@H](C(=O)N[C@@H](CCC(=O)O)C(=O)N[C@H](C(=O)N[C@H](C(=O)N1CCC[C@H]1C(=O)N[C@H](C(=O)N[C@@H](CO)C(=O)O)[C@@H](C)CC)C(C)C)C(C)C)C(C)C)C(C)C` [Peptide 39.0389], the IC50 is 41.7 µM.
`C[C@H](NC(=O)CNC(=O)CNC(=O)[C@@H](N)CCC(N)=O)C(=O)N[C@@H](C)C(=O)N1CCC[C@H]1C(=O)N[C@@H](CCC(N)=O)C(=O)N1CCC[C@H]1C(=O)N[C@@H](Cc1c[nH]cn1)C(=O)N1CCC[C@H]1C(=O)N1CCC[C@H]1C(=O)N1CCC[C@H]1C(=O)N[C@@H](C)C(=O)N[C@@H](Cc1ccccc1)C(=O)N[C@@H](CO)C(=O)O` [Peptide 39.0382]: the IC50 is greater than 120 µM.
As for `CC(C)C[C@H](NC(=O)[C@H](CC(=O)O)NC(=O)[C@@H](NC(=O)[C@H](CS)NC(=O)[C@H](CO)NC(=O)[C@@H](N)Cc1c[nH]cn1)C(C)C)C(=O)N[C@@H](CC(=O)O)C(=O)N[C@@H](CC(=O)O)C(=O)N[C@@H](CCCCN)C(=O)NCC(=O)N[C@@H](CS)C(=O)N1CCC[C@H]1C(=O)N[C@@H](C)C(=O)N[C@@H](CCC(=O)O)C(=O)N[C@@H](CCC(N)=O)C(=O)O` [Peptide 39.0359], the IC50 was greater than 111 µM.
Take SLAFLPESFDGDPAS [Peptide 39.0349]: the IC50 was greater than 111 µM.
As to NKEILDEAYVMAGVG [Peptide 39.0363], the IC50 was 63.8 µM.
For the compound `CC(C)C[C@H](NC(=O)[C@H](CCC(N)=O)NC(=O)[C@H](CC(=O)O)NC(=O)[C@H](Cc1c[nH]c2ccccc12)NC(=O)[C@@H]1CCCN1C(=O)[C@@H](NC(=O)[C@@H](NC(=O)[C@H](Cc1c[nH]cn1)NC(=O)[C@@H](N)C(C)C)[C@@H](C)O)C(C)C)C(=O)N[C@@H](Cc1ccccc1)C(=O)N[C@@H](CCCNC(=N)N)C(=O)N[C@@H](CC(N)=O)C(=O)N1CCC[C@H]1C(=O)N[C@@H](Cc1c[nH]cn1)C(=O)N[C@@H](CCC(N)=O)C(=O)O` [Peptide 39.0353], the IC50 stood at 13.6 µM.
On the same count and under the same terms, in the case of TVPLPSETDGYVAPL [Peptide 39.0380] it was greater than 120 µM; in that of AIKVLRENTSPKANK [Peptide 39.0362], 40 µM; in that of NQEVTAEDGTQRCEK [Peptide 39.0347], greater than 111 µM.
On the same count and under the same terms, in the case of GDLVDAEEYLVPQQG [Peptide 39.0375] it was 12 µM; in that of `CC(C)C[C@H](NC(=O)[C@H](Cc1ccc(O)cc1)NC(=O)[C@H](CC(N)=O)NC(=O)[C@@H](N)Cc1ccc(O)cc1)C(=O)N[C@@H](CO)C(=O)N[C@H](C(=O)N[C@@H](CC(=O)O)C(=O)N[C@H](C(=O)NCC(=O)N[C@@H](CO)C(=O)N[C@@H](CS)C(=O)N[C@H](C(=O)N[C@@H](CC(C)C)C(=O)N[C@H](C(=O)N[C@@H](CS)C(=O)O)C(C)C)[C@@H](C)O)C(C)C)[C@@H](C)O` [Peptide 39.0346] (H-YNYLSTDVGSCTLVC-OH), 50.8 µM.
Consider MRRLLQETELVEPLT [Peptide 39.0360], for which the IC50 is greater than 111 µM.
LVTYNTDTFESMPNP [Peptide 39.0345]: the IC50 was greater than 111 µM.
Turning to `CC(C)C[C@H](NC(=O)[C@@H]1CCCN1C(=O)[C@@H](NC(=O)[C@@H](NC(=O)[C@@H]1CCCN1C(=O)[C@H](CC(=O)O)NC(=O)[C@H](CCC(=O)O)NC(=O)[C@H](CO)NC(=O)[C@H](Cc1ccc(O)cc1)NC(=O)[C@H](CCCNC(=N)N)NC(=O)[C@H](CCC(N)=O)NC(=O)[C@@H](N)CC(C)C)[C@@H](C)O)C(C)C)C(=O)N1CCC[C@H]1C(=O)N[C@@H](CO)C(=O)N[C@@H](CCC(=O)O)C(=O)O` [Peptide 39.0379], the IC50 amounted to 11.1 µM.
As for DNLYYWDQDPPERGA [Peptide 39.0383], the IC50 is greater than 120 µM.
The same measure, in the same setting: in the case of QGFFCPDPAPGAGGM [Peptide 39.0376] it was 66.7 µM; in that of DLTLGLEPSEEEAPR [Peptide 39.0377], greater than 120 µM.

Staying with this assay, now noted: read-out: In IC50 Format DR3; Table VIII.
`CC[C@H](C)[C@H](NC(=O)[C@H](CCC(N)=O)NC(=O)[C@H](CC(C)C)NC(=O)[C@@H](NC(=O)[C@H](Cc1ccccc1)NC(=O)[C@H](Cc1ccc(O)cc1)NC(=O)[C@H](CCC(=O)O)NC(=O)CNC(=O)[C@H](CC(=O)O)NC(=O)[C@H](CC(C)C)NC(=O)[C@@H]1CCCN1C(=O)[C@H](CCCCN)NC(=O)[C@@H](N)CCCCN)[C@@H](C)O)C(=O)N[C@@H](CCCNC(=N)N)C(=O)NCC(=O)O` [Peptide 39.0422]: the IC50 is greater than 120 µM.
With `CC(C)C[C@H](NC(=O)[C@H](CC(N)=O)NC(=O)CNC(=O)[C@@H](N)CCC(=O)O)C(=O)N[C@@H](CCCNC(=N)N)C(=O)N[C@H](C(=O)N[C@@H](CCC(=O)O)C(=O)N[C@@H](Cc1ccc(O)cc1)C(=O)N[C@@H](CC(C)C)C(=O)N[C@@H](CC(=O)O)C(=O)N[C@@H](CC(=O)O)C(=O)N[C@@H](CCCNC(=N)N)C(=O)N[C@@H](CC(N)=O)C(=O)N[C@H](C(=O)N[C@@H](Cc1ccccc1)C(=O)O)[C@@H](C)O)C(C)C` [Peptide 39.0417], the IC50 was 76.9 µM.
Turning to `CC[C@H](C)[C@H](NC(=O)[C@@H](NC(=O)[C@@H](N)CC(C)C)[C@@H](C)O)C(=O)N[C@H](C(=O)N[C@H](C(=O)N[C@@H](CC(C)C)C(=O)N[C@@H](CCC(=O)O)C(=O)N[C@@H](CC(=O)O)C(=O)N[C@@H](CO)C(=O)N[C@@H](CO)C(=O)NCC(=O)N[C@@H](CC(N)=O)C(=O)N[C@@H](CC(C)C)C(=O)N[C@@H](CC(C)C)C(=O)NCC(=O)O)[C@@H](C)O)[C@@H](C)CC` [Peptide 39.0421], the IC50 is 100 µM.
Regarding `CC[C@H](C)[C@H](NC(=O)[C@H](C)NC(=O)[C@@H](N)CCSC)C(=O)N[C@@H](Cc1ccc(O)cc1)C(=O)N[C@@H](CCCCN)C(=O)N[C@@H](CCC(N)=O)C(=O)N[C@@H](CO)C(=O)N[C@@H](CCC(N)=O)C(=O)N[C@@H](Cc1c[nH]cn1)C(=O)N[C@@H](CCSC)C(=O)N[C@H](C(=O)N[C@@H](CCC(=O)O)C(=O)N[C@H](C(=O)N[C@H](C(=O)N[C@@H](CCCNC(=N)N)C(=O)O)C(C)C)C(C)C)[C@@H](C)O` [Peptide 39.0414], the IC50 was greater than 120 µM.
For the compound `CC(C)C[C@H](NC(=O)[C@H](CCCCN)NC(=O)[C@H](Cc1c[nH]c2ccccc12)NC(=O)[C@H](CC(C)C)NC(=O)[C@H](CC(=O)O)NC(=O)[C@H](CO)NC(=O)[C@H](Cc1ccccc1)NC(=O)[C@@H](NC(=O)[C@H](CCC(=O)O)NC(=O)[C@H](CCC(N)=O)NC(=O)[C@H](CO)NC(=O)[C@H](CC(C)C)NC(=O)[C@@H]1CCCN1C(=O)[C@@H]1CCCN1C(=O)[C@@H](N)CCC(=O)O)[C@@H](C)O)C(=O)O` [Peptide 39.0409], the IC50 is greater than 120 µM.
On the same count and under the same terms, in the case of `CC[C@H](C)[C@H](NC(=O)[C@H](C)NC(=O)[C@@H](N)CC(C)C)C(=O)N[C@H](C(=O)N[C@@H](C)C(=O)N[C@@H](CCCNC(=N)N)C(=O)N[C@@H](CCC(=O)O)C(=O)NCC(=O)N[C@@H](CC(=O)O)C(=O)N[C@@H](CS)C(=O)N[C@@H](C)C(=O)N1CCC[C@H]1C(=O)N[C@@H](CCC(=O)O)C(=O)N[C@@H](CCC(=O)O)C(=O)N[C@@H](CCCCN)C(=O)O)[C@@H](C)CC` [Peptide 39.0405] it was greater than 120 µM.
